# Results reported in patent US20090170938A1 (priority 2005, published 2009).
# Test system: Phytophthora infestans
# Format: in vivo, Phytophthora infestans on tomato
# Conditions: active compound application rate 5 ppm; protective spray, tomato; evaluation 3 days after inoculation
smiles,measurement,value
"CON=C(C(=O)OC)c1ccccc1CO/N=C(\C)c1cccc(C(F)(F)F)c1 [Trifloxystrobin, 2-[α-{[(α-methyl-3-trifluoromethyl-benzyl)imino]-oxy}-o-tolyl]-glyoxylic acid methyl ester O-methyloxime]",% efficacy,23%
